# Data from patent US20230346969A1, “INTERMEDIATE FOR PREPARING ANTIBODY-DRUG CONJUGATE (ADC), PREPARATION METHOD THEREFOR, AND USE THEREOF” (priority 2020, published 2023).
# Legend:
# [1] = test system: CFPAC-1; experiment: Cell viability assay (CCK-8); format: cell-based; conditions: ADCs; CCK-8, 96 hours; cell CPAC-1 [sic], Pancreas; read-out: IC50 (95% Cl)
# Experimental: (§1) Cell viability was determined using Cell Counting Kit 8 (CCK-8). Cells were seeded into 96-well plates at 3000-10000 cells/well. After incubation overnight, drugs were added at different concentrations. Plates were incubated in a 5% CO2, 37° C. humidified chamber for 96 hours. CCK8 reagent was added thereto and the plates were placed back to the incubator until the absorbance at 450 nm of untreated control cells was greater than 1.0. Growth inhibition was measured as the percent growth relative to untreated cells. Dose response curve was generated from the mean values of two or three tests, and IC50 values were calculated using Prism GraphPad software.
# (§2) The anti-tumor efficacy of different payloads on different tumor cell lines was detected by CCK-8, and the results are shown in FIG. 5.
# [2] = test system: COLO205; experiment: Cell viability assay (CCK-8); format: cell-based; conditions: ADCs; CCK-8, 96 hours; cell printed 'COXC28', Colon; read-out: IC50 (95% Cl)
# Experimental: as §1, §2
# [3] = test system: HCC1806; experiment: Cell viability assay (CCK-8); format: cell-based; conditions: ADCs; CCK-8, 96 hours; 'HOC1906' [sic], Mamary; read-out: IC50 (95% Cl)
# Experimental: as §1, §2
# [4] = test system: NCIH2452; experiment: Cell viability assay (CCK-8); format: cell-based; conditions: ADCs; CCK-8, 96 hours; cell 'HOC2401' [sic], Lung; read-out: IC50 (95% Cl)
# Experimental: as §1, §2
# [5] = test system: SCLC-21H; experiment: Cell viability assay (CCK-8); format: cell-based; conditions: ADCs; CCK-8, 96 hours; SRM-C-21H; read-out: IC50 (95% Cl)
# Experimental: as §1, §2
# [6] = test system: SK-MES-1; experiment: Cell viability assay (CCK-8); format: cell-based; conditions: ADCs; CCK-8, 96 hours; cell 'SK-WSS-7' [sic], Lung; read-out: IC50 (95% Cl)
# Experimental: as §1, §2
# [7] = test system: SKBR3; experiment: Cell viability assay (CCK-8); format: cell-based; conditions: ADCs; CCK-8, 96 hours; 'SKERS' [sic], Mammary; read-out: IC50 (95% Cl)
# Experimental: as §1, §2
# [8] = test system: tumor cell lines with different expression levels of Trop-2; experiment: Cell viability assay (CCK-8), comparison across the cell panel; format: cell-based
# Experimental: as §1, §2
# [9] = test system: MDA-MB-231 or CFPAC-1 cells; experiment: Detection of ADC endocytosis rate by flow cytometry; format: cell-based; conditions: Trop-2 expressing cells, 5 µg/mL ADC, 37° C.
# Experimental: To assess the endocytosis rate of ADC, MDA-MB-231 or CFPAC-1 cells (1 × 10^6) were incubated with 5 µg/mL of ADC samples in a staining medium for 30 min on ice, and washed twice, and then it was placed in a fresh complete medium. Internalization was initiated in a humidified chamber at 37° C. After the incubation, cells were washed twice with an ice-cold staining medium and then stained with goat anti-human IgG-PE. Cells were analyzed by flow cytometry to detect the level of ADC remaining on the surface.
# The internalization rate of ADC may affect its inhibitory efficiency against tumor cells.
# [10] = test system: NCIH1688 cells; experiment: Transplanted tumor from NCIH1688 cells alone (not expressing Trop-2); format: in vivo, BALB/c-nu/nu mice; conditions: hRS7-VK-PTX 10 mg/kg, hRS7-VK-MMAE 3 mg/kg
# Description: Five-week-old female athymic BALB/c nu/nu mice were purchased from Charles River Company (Shanghai, China), and mice were randomly divided into 5-6 mice/group. Animal handling and procedures were approved and performed in accordance with the requirements of the Institutional Animal Care and Use Committee (IACUC) of Shanghai Institute of Materia Medica, Chinese Academy of Sciences. All models were inoculated subcutaneously on the side of mice. BXPC-3, HCC1806 and NCIH1688 cells were established by injecting and homogenizing 5 × 10^6 cells in Matrigel matrix. COLO205 cells were established by injecting and suspending 1 × 10^7 cells in Matrigel matrix. After the tumor volume reached about 200 mm^3, the tumor-bearing mice were randomly divided into treatment groups and a control group according to the tumor volume. Each drug was administered intraperitoneally. […] The percentage of inhibition was calculated by the following formula: (1-average tumor volume of the treatment group/average tumor volume of the control group)×100%. Toxicity of the different treatment groups was assessed by monitoring weight loss.
# A mixture of Trop-2-positive tumor cells BXPC-3 and Trop-2-negative tumor cells NCIH1688 or NCIH1688 cells alone were inoculated into BALB/c-nu/nu mice (FIG. 1e, right panel), and the “bystander effect” of hRS7-VK-PTX was detected in a mouse transplanted tumor model.
# [11] = Adverse effects and weight loss of mice treated in the efficacy models; format: in vivo, BALB/c nu/nu mice; conditions: mouse, in vivo
# Description: Five-week-old female athymic BALB/c nu/nu mice were purchased from Charles River Company (Shanghai, China), and mice were randomly divided into 5-6 mice/group. Animal handling and procedures were approved and performed in accordance with the requirements of the Institutional Animal Care and Use Committee (IACUC) of Shanghai Institute of Materia Medica, Chinese Academy of Sciences. All models were inoculated subcutaneously on the side of mice. BXPC-3, HCC1806 and NCIH1688 cells were established by injecting and homogenizing 5 × 10^6 cells in Matrigel matrix. COLO205 cells were established by injecting and suspending 1 × 10^7 cells in Matrigel matrix. After the tumor volume reached about 200 mm^3, the tumor-bearing mice were randomly divided into treatment groups and a control group according to the tumor volume. Each drug was administered intraperitoneally. Mice were injected at doses of 3 or 10 mg/kg (10 mL/kg). Tumor volume was defined as length × ½ × width × width. The percentage of inhibition was calculated by the following formula: (1-average tumor volume of the treatment group/average tumor volume of the control group)×100%. Toxicity of the different treatment groups was assessed by monitoring weight loss.
# [12] = Dose tolerability, single intravenous dose acute toxicity; format: in vivo; conditions: BALB/c mice
# Experimental: Dose tolerability assay was performed in BALB/c mice (3 mice per dose). The drug was given in a single intravenous dose. The injection doses of hRS7-VK-PTX were 60, 80 and 100 mg/kg, and the injection doses of hRS7-VK-MMAE were 60 and 80 mg/kg, respectively. Toxicity was assessed by observing mouse behavior, weight loss and survival. The weight change rate (%) was calculated as: (body weight - body weight before treatment)/(body weight before treatment) × 100%.
# The safety of relatively high doses of hRS7-VK-PTX in BALB/c mice was studied by an acute toxicity experiment with single intravenous administration in mice.
substance,measurement,setting,value
hRS7-VK-PTX,IC50,[1],16.8 nM
same,IC50,[2],4.52 nM
same,IC50,[3],0.266 nM
same,IC50,[4],1.4 nM
same,IC50,[5],2.96 nM
same,IC50,[6],10.1 nM
same,IC50,[7],1.74 nM
same,efficacy of ADC in tumor cell lines with low expression of Trop-2,"[8]; COL0205, MDA-MB-231, SK - MES-1, Capan-1, NCIH2452",more effective than hRS7-VK-MMAE and hRS7-VK-SN38
same,inhibitory effect in PTX-resistant tumor cell lines,"[8]; SKBR3, CFPAC-1, MDA-MB-231 and COLO205",good inhibitory effect
same,internalization rate,[9],faster than hRS7-VK-MMAE and hRS7-VK-SN38
same,killing effect on transplanted tumors not expressing Trop-2,[10],had no such effect
same,adverse effects or weight loss in treated mice,[11],did not cause adverse effects or weight loss
same,toxicity or weight loss compared with placebo,[12]; single 100 mg/kg intravenous dose,no significant toxicity or weight loss
same,maximum tolerated dose (MTD),"[12]; single intravenous dose, highest dose 100 mg/kg",not reached
